{"source": "patent US7820804B2", "about": "“Fluoroglycoside derivatives of pyrazoles, medicaments containing these compounds, and the use thereof” (Sanofi-Aventia Deutschland GmbH, priority 2004, dated 2010)", "target": "T1, human sodium-dependent glucose transporter 1 (SGLT1, SLC5A1) (Homo sapiens, UniProt P13866)", "T1 construct": "Bases 11 to 2005 correspond to the complete coding region of human SGLT1; expressed in transfected cells", "T1 sequence (P13866 1-664)": "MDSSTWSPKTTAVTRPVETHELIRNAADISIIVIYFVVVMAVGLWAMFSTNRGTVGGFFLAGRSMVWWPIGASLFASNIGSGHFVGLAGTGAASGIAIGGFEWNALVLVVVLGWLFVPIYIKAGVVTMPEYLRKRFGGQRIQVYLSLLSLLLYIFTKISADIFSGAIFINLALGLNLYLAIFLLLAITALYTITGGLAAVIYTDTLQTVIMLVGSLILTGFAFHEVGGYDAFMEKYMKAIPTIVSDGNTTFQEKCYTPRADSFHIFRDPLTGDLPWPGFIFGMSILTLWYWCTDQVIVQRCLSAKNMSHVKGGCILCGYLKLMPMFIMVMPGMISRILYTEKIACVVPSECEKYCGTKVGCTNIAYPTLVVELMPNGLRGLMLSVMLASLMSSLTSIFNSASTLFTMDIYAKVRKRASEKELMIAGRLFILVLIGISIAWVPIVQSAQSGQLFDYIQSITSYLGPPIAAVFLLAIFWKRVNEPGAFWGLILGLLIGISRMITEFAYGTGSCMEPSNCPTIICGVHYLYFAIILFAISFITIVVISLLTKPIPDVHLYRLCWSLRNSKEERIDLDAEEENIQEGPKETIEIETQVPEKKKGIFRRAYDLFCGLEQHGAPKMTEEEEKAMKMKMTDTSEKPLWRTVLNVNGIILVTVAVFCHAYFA", "assay": "Inhibition of methyl α-D-glucopyranoside (α-MDG) uptake in CHO-TRex-hSGLT1 cells", "type": "cell-based", "details": "in vitro uptake of methyl α-D-glucopyranoside, 50 μM α-MDG, 30 min at room temperature", "from_the_text": "A further method for testing the activity of the compounds is the inhibition of the transport activity of the human sodium-dependent glucose transporter 1 (SGLT1, SLC5A1) in vitro:\n1. Cloning of an Expression Vector for Human SGLT1\nThe cDNA for human SGLT1 was introduced into the pcDNA4/TO vector (Invitrogen) by standard methods of molecular biology as described in Sambrook et al. (Sambrook et al., Molecular Cloning, A Laboratory Manual, 2nd Edition). […] Bases 11 to 2005 correspond to the complete coding region of human SGLT1.\n2. Preparation of a Recombinant Cell Line with Inducible Expression of Human SGLT1\nThe expression vector for human SGLT1 was introduced into CHO-TRex cells (Invitrogen) by means of FuGene6 lipofection (Roche). To select single cell clones, 600 μg/mI Zeocin (Invitrogen) was added to the cell culture medium (Nutrient Mixture F-12 (Ham), (Invitrogen) supplemented with 10% fetal calf serum (BD Biosciences), 10 μg/ml blasticidin S (CN Biosciences), 100 units/ml penicillin, 100 units/ml streptomycin). The functionality of the single cell clones resulting from the selection was tested via their uptake activity for radiolabeled methyl α-D-glucopyranoside. The cell clone with the greatest uptake activity for methyl α-D-glucopyranoside, referred to as CHO-TRex-hSGLT1 hereinafter, was selected for further experiment, and cultivation was continued in the presence of 600 μg/ml of zeocin.\n3. Measurement of the Inhibitory Effect of Test Substances on the Uptake of Methyl […]-D-glucopyranoside ([…]-MDG)\nCHO-TRex-hSGLT1 cells were seeded in a concentration of 50 000 cells per well in Cytostar-T scintillating 96-well plates (Amersham Biosciences) in cell culture medium and cultivated for 24 h. Expression of the recombinant human SGLT1 was induced by adding 1 pg/mI tetracyclin for a further 24 h. For α-MDG uptake experiments, the cells were washed with PBS and then starved (PBS supplemented with 10% fetal calf serum) at 37° C. for one hour. After a further washing step with transport assay buffer (140 mM sodium chloride, 2 mM potassium chloride, 1 mM magnesium chloride, 1 mM calcium chloride, 10 mM HEPES/Tris, pH 7.5), the cells were incubated either in the absence or presence of test substances varying in concentration at room temperature for 15 min. The test substances were diluted appropriately in transport assay buffer (40 μl/well) starting from a 10 mM stock solution in dimethyl sulfoxide.\nThe assay was then started by adding 10 μl of a mixture of radiolabeled methyl α-D-[U-^14C]glucopyranoside (Amersham) and unlabeled methyl α-D-glucopyranoside (Acros). The final concentration of methyl α-D-glucopyranoside in the assay was 50 μM. After an incubation time of 30 min at room temperature, the reaction was stopped by adding 50 µl/well of 10 mM methyl α-D-glucopyranoside in transport assay buffer (4° C.), and the radioactivity uptake by the cells was determined in a MicroBeta Scintillation Microplate Reader (Wallac). The half-maximum inhibitory effect of the test substances (IC50) was determined in the following way: • 1. Establishment of the value for 0% inhibition. This is the measurement in the absence of substance, measured in sodium-containing transport assay buffer. • 2. Establishment of the value for 100% inhibition. This is the measurement in the absence of substance, measured in sodium-free transport assay buffer (140 mM choline chloride, 2 mM potassium chloride, 1 mM magnesium chloride, 1 mM calcium chloride, 10mM HEPES/Tris, pH7.5). • 3. Calculation of the percentage inhibitions for the measurements carried out in the presence of various concentrations of test substance. It was then possible to ascertain therefrom the concentration of test substance which reduced the uptake of methyl α-D-glucopyranoside by 50% (IC50).\nIC50 values of test substances (μM) [in vitro testing of the uptake of methyl α-D-glucopyranoside]", "data": [{"smiles": "CC(C)c1[nH]nc(OC2OC(CO)C(F)C(O)C2O)c1Cc1ccc(CCCNC(=O)N2CCN(C)CC2)cc1", "note": "(stereo not drawn) [Example 36]", "values": [{"measurement": "IC50", "value": 43, "unit": "nM"}]}, {"smiles": "Cc1[nH]nc(OC2OC(CO)C(F)C(O)C2O)c1Cc1ccc(CCCC(=O)NCCC(N)=O)cc1", "note": "(stereo not drawn) [Example 6]", "values": [{"measurement": "IC50", "value": 133, "unit": "nM"}]}, {"smiles": "CC(C)c1[nH]nc(OC2OC(CO)C(F)C(O)C2O)c1Cc1ccc(CCCC(=O)N2CCCC2)cc1", "note": "(stereo not drawn) [Example 15]", "values": [{"measurement": "IC50", "value": 170, "unit": "nM"}]}, {"smiles": "CC(C)c1[nH]nc(O[C@@H]2O[C@H](CO)[C@@H](F)[C@H](O)[C@H]2O)c1Cc1ccc(C(=O)NCC(N)=O)cc1", "note": "[Example 33]", "values": [{"measurement": "IC50", "value": 70, "unit": "nM"}]}, {"smiles": "CC(C)c1[nH]nc(OC2OC(CO)C(F)C(O)C2O)c1Cc1ccc(/C=C/CC(=O)NCCC(N)=O)cc1", "note": "(stereo not drawn) [Example 3]", "values": [{"measurement": "IC50", "value": 43, "unit": "nM"}]}, {"smiles": "CC(C)c1[nH]nc(OC2OC(CO)C(F)C(O)C2O)c1Cc1ccc(CCCC(=O)N2CCN(C)CC2)cc1", "note": "(stereo not drawn) [Example 12]", "values": [{"measurement": "IC50", "value": 139, "unit": "nM"}]}, {"smiles": "CC(C)c1[nH]nc(OC2OC(CO)C(F)C(O)C2O)c1Cc1ccc(CCCC(=O)N[C@@H]2O[C@H](CO)[C@@H](O)[C@H](O)[C@H]2O)cc1", "note": "(stereo partly drawn) [Example 24]", "values": [{"measurement": "IC50", "value": 208, "unit": "nM"}]}, {"smiles": "CCCNC(=O)NCCCc1ccc(Cc2c(OC3OC(CO)C(F)C(O)C3O)n[nH]c2C)cc1", "note": "(stereo not drawn) [Example 31]", "values": [{"measurement": "IC50", "value": 252, "unit": "nM"}]}, {"smiles": "CC(C)c1[nH]nc(OC2OC(CO)C(F)C(O)C2O)c1Cc1ccc(CCCC(=O)N[C@@H](CO)C(N)=O)cc1", "note": "(stereo partly drawn) [Example 9]", "values": [{"measurement": "IC50", "value": 81, "unit": "nM"}]}, {"smiles": "CC(C)c1[nH]nc(OC2OC(CO)C(F)C(O)C2O)c1Cc1ccc(CCCC(=O)NC(CO)(CO)CO)cc1", "note": "(stereo not drawn) [Example 21]", "values": [{"measurement": "IC50", "value": 47, "unit": "nM"}]}, {"smiles": "CC(C)c1[nH]nc(OC2OC(CO)C(F)C(O)C2O)c1Cc1ccc(CCCC(=O)NCCCN)cc1", "note": "(stereo not drawn) [Example 22]", "values": [{"measurement": "IC50", "value": 144, "unit": "nM"}]}, {"smiles": "CC(C)c1[nH]nc(OC2OC(CO)C(F)C(O)C2O)c1Cc1ccc(CCC(=O)NC(C)(C)CO)cc1", "note": "(stereo not drawn) [Example 18]", "values": [{"measurement": "IC50", "value": 80, "unit": "nM"}]}]}
